How the values were obtained:
[1] = tested on: retinoblastoma protein (Rb) phosphorylation in MTLn3 cells; experiment: Rb phosphorylation in MTLn3 cells by Western blot; format: cell-based, rat; conditions: MTLn3, 20 hours, 0.17, 0.24 and 0.72 μM
Experimental: Cells were washed 3 times with cold PBS on ice and scraped from the flasks. All cells were collected in 15 ml tubes. Cells were pelleted by centrifugation and lysis buffer was added (1:1 PBS: 2× Tris-Glycine SDS Sample Buffer (Invitrogen, Carlsbad, Calif.) containing 5% 2-β mercaptoethanol). The volume of lysis buffer used was 5 ul per 1×10^6 cells. Samples were sonicated for 30 seconds on ice. Following sonication, samples were clarified by centrifugation at 16,000×g for 10 minutes at 4° C. and protein concentrations were determined using Non-Interfering Protein Assay Kit (Geno Technology Incorporated, Maplewood, Mo.). Proteins were denatured by boiling for 5 minutes and centrifuged as described above. […] For Western blotting, total Rb was detected using antibody from Pharmingen (BD Bioscience, San Diego, Calif.) at a dilution of 1:2000. The phosphorylation status of Rb at serine 780, serine 795 and serine 807/811 was detected with phosphospecific antibodies at dilutions of 1:1000 (Cell Signaling Technology, Beverly, Mass.).
Lysates were analyzed by Western blotting for Rb phosphorylation using polyclonal antibodies prepared against a peptide corresponding to sequences surrounding phosphorylated serine 807/811 in human Rb (FIG. 3).

[2] = tested on: Rb phosphorylation in MTLn3 tumors; experiment: Rb phosphorylation in rat MTLn3 tumor xenografts after a single oral dose; format: in vivo; conditions: single oral dose 80 mg/kg, Western blot
Experimental: The dose selected was 80 mg/kg, determined to be an efficacious dose in this animal model. Tumor growth inhibition in the MTLn3 xenograft model after 2 to 3 weeks of oral dosing at 80 mg/kg once weekly averaged 90% with 2/10 complete regressions. COMPOUND A was dosed on day 10 post implantation of cells, at which time the tumors were 100-200 mm^3 in size. In this pharmacokinetic/pharmacodynamic experiment, plasma and tumors were collected at 1, 2, 6, 24 and 72 hours post dosing of a single oral dose of COMPOUND A. Tumors were removed and immediately snap frozen in liquid nitrogen and stored at −80° C. until drug concentration analysis. […] Concentrations of COMPOUND A in plasma and tumors were determined in the same three animals per time point. […] Peripheral blood mononuclear cells (PBMCs) were isolated, stimulated ex vivo with mitogen and analyzed by Western blot as described below.
In a second pharmacodynamic study, plasma concentrations of COMPOUND A were similarly analyzed as described above, and Rb phosphorylation in both PBMCs and tumor xenografts treated with a single oral dose of COMPOUND A was examined.
PBMCs were collected by transferring the cells, including attached cells and those in suspension, into 50 ml tubes. […] For Western blotting, total Rb was detected using antibody from Pharmingen (BD Bioscience, San Diego, Calif.) at a dilution of 1:2000. […]

For COc1ccc(F)c(F)c1C(=O)c1cnc(NC2CCN(S(C)(=O)=O)CC2)nc1N [COMPOUND A, [4-amino-2-(1-methanesulfonylpiperidin-4-ylamino)pyrimidin-5-yl]-(2,3-difluoro-6-methoxyphenyl)methanone], which “Rb phosphorylation at epitope recognized by anti-phospho-serine 807/811 antibody” value [1] is on record?
The value was “inhibition of phosphorylation”.

What about the “Rb phosphorylation (serine 807/811) in tumor xenografts” value [2] of the same molecule?
Its value is “reduction in phosphorylation of Rb”.

Source: patent publication US20060269482A1 (priority 2005, published 2006)
